Results: patent publication US20140170158A1, “COMPOSITIONS AND METHODS FOR TREATING OR PREVENTING LUNG DISEASES” (THE JOHNS HOPKINS UNIVERSITY, priority 2012, published 2014)
“Also recorded” adds a separate entry of the source.

Assays:
Akt, JNK, p38 = assay: Immunoblotting of activated and total Akt, JNK and p38 in lung lysates; assay type: in vivo, mice; conditions: CS-exposed lungs, attenuated by CS
Description: (§1) Six- to eight-week-old AKR/J male mice were divided into 3 groups. The control group was kept in a filtered air environment, and the experimental groups were subjected to CS or CS plus losartan in drinking water. CS exposure was carried out (2 hours per day, 5 days per week) by burning 2R4F reference cigarettes (University of Kentucky, […], Ky., USA) using a smoking machine (Model TE-10; Teague Enterprises) for 6 to 7 weeks. The average concentration of total suspended particulates and carbon monoxide was 90 mg/m and 350 ppm, respectively, which was monitored on a routine basis.
(§2) The AT1 selective antagonist losartan (Merck Co.) was diluted into drinking water at concentrations of 3 mg/kg (low dose) and 30 mg/kg (high dose). Panselective TGF-β-neutralizing antibody (R&D Systems) was administered by intraperitoneal injection according to published protocol (70). Isotype-matched control antibody (R&D Systems) was administered to control mice as described above.
(§3) Whole lung lysates were extracted in M-Per buffer from Pierce. Protein concentrations were determined using the Bio-Rad Protein Assay. Aliquots of 30-50 μg protein were boiled and then loaded onto Tris-HCL gels and transferred electrophoretically to nitrocellulose membranes. Membranes were incubated with the primary antibody for 1 hour at room temperature. Detection was performed by the Pierce West Dura ECL Detection System. […]

TGF-β signaling (psmad2) = assay: Immunohistochemical staining for psmad2, a marker of TGF-β signaling, in lungs; assay type: in vivo; conditions: chronic CS-exposed mice
Description: as §1, §2
(§4) Tissue sections were deparaffinized and rehydrated in an ethanol series. Sections were blocked for non-specific binding with 3% normal serum from chicken and incubated with the primary antibodies for 1 hour at room temperature. For immunofluorescence, sections were then incubated with secondary antibodies at 1:200 for 30 minutes at room temperature (Molecular Probes). […]

[1] = system: alveolar epithelial apoptosis; assay: TUNEL and active caspase-3 labeling in the airspace; assay type: in vivo; conditions: CS-exposed mice
Description: as §1, §2, §4

active TGF-β = assay: ELISA of active TGF-β in lung lysates of CS-exposed mice; assay type: in vivo; conditions: AKR/J and C57BL/6 mice, two weeks of CS exposure, concurrent treatment
Description: as §1, §2

elastin = assay: Elastin localization by Hart's stain; assay type: in vivo; conditions: CS-exposed mice
Description: as §1, §2

[2] = system: chronic CS-exposed AKR/J mice; assay: Morphometric analysis of airspace dimension and airway attachments in chronic CS-induced emphysema model; assay type: in vivo
Description: Six- to eight-week-old AKR/J male mice were divided into 3 groups. […] CS exposure was carried out (2 hours per day, 5 days per week) by burning 2R4F reference cigarettes (University of Kentucky, […], Ky., USA) using a smoking machine (Model TE-10; Teague Enterprises) for 6 to 7 weeks. The average concentration of total suspended particulates and carbon monoxide was 90 mg/m and 350 ppm, respectively, which was monitored on a routine basis.
[…] Panselective TGF-β-neutralizing antibody (R&D Systems) was administered by intraperitoneal injection according to published protocol (70). Isotype-matched control antibody (R&D Systems) was administered to control mice as described above.
Three to five mice of each genotype were studied at the noted ages. For histologic and morphometric analyses, mouse lungs were inflated at a pressure of 25 cm H2O and fixed with 4% PFA in low molecular weight agarose. […]
Mean linear intercept measurements were performed on H&E-stained sections taken at intervals throughout both lungs. […] Mean chord lengths and mean linear intercepts were assessed by automated morphometry with a macro-operation performed by Metamorph Imaging Software (Universal Imaging, Molecular Devices). Mean airway thickness was measured directly using microscope-captured images at ×40 magnification. […]

AT1 receptor = molecular target: T1, AT1 receptor (Mus musculus, UniProt P29754); assay: Immunohistochemistry for the AT1 receptor in murine lungs; assay type: in vivo, mice; conditions: 2 months CS
T1 construct: from tissue; host or cells: fixed lung sections of AKR/J mice
T1 sequence (P29754 1-359): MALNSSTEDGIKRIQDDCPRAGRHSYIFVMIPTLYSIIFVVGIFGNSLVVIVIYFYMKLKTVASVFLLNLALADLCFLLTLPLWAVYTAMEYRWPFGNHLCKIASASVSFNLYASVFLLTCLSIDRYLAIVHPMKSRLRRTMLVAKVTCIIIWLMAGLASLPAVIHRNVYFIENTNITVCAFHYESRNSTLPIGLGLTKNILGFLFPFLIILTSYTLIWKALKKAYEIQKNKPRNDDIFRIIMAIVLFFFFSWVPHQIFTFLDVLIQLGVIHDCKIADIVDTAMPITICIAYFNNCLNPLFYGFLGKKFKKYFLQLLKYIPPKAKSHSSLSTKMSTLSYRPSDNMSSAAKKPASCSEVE
Description: as §1, §2

MMP12 = assay: Western blot analysis of MMP12 expression in lung lysates; assay type: in vivo; conditions: CS-exposed mice
Description: as §1, §2, §3

[3] = Body weight of CS- or RA-exposed mice; assay type: in vivo; conditions: for CS-induced weight loss: CS-exposed mice, two months treatment
Description: as §1, §2

[4] = system: small airways of chronic CS-exposed mice; assay: Airway histology: wall thickness, Ki67, trichrome, αSMA; assay type: in vivo
Description: Six- to eight-week-old AKR/J male mice were divided into 3 groups. The control group was kept in a filtered air environment, and the experimental groups were subjected to CS or CS plus losartan in drinking water. […] The average concentration of total suspended particulates and carbon monoxide was 90 mg/m and 350 ppm, respectively, which was monitored on a routine basis.
as §2
Mean linear intercept measurements were performed on H&E-stained sections taken at intervals throughout both lungs. Slides were coded, captured by an observer, and masked for identity for the groups. Ten to fifteen images per slide were acquired at ×20 magnification and transferred to a computer screen. Mean chord lengths and mean linear intercepts were assessed by automated morphometry with a macro-operation performed by Metamorph Imaging Software (Universal Imaging, Molecular Devices). Mean airway thickness was measured directly using microscope-captured images at ×40 magnification. Hart's staining was performed per published protocol using either van Gieson or tartrazine counterstaining (71).
Tissue sections were deparaffinized and rehydrated in an ethanol series. Sections were blocked for non-specific binding with 3% normal serum from chicken and incubated with the primary antibodies for 1 hour at room temperature. For immunofluorescence, sections were then incubated with secondary antibodies at 1:200 for 30 minutes at room temperature (Molecular Probes). Sections were counterstained with 4′,6′-diamidinio-2-phenylindole (DAPI) and mounted with Vectashield hard set mounting medium (Vector Labs). Briefly, after incubation with the primary antibody overnight at 4° C., slides were washed with PBST, incubated with an appropriate biotinylated secondary antibody (Jackson ImmunoResearch Inc.), and developed by using ABC and DAB detection reagents (Vector Laboratories). Antibodies were used at the following concentrations: Ki67 (1:50; Santa Cruz Biotechnology Inc.), nitrotyrosine (Abcam), Mac3 (BD Biosciences), CD45R (Santa Cruz Biotechnology Inc.), psmad2 (Cell Signaling Technology), TUNEL (1:25; Abcam), JNK/pJNK (Cell Signaling Technology), Akt/pAkt (Cell Signaling Technology), LAP— TGF-β1 (R&D Systems), CTGF (Abcam), Angiotensin type 1 receptor (Santa Cruz Biotechnology Inc.), and active caspase-3 (Abcam).

[5] = system: lung gene expression pathways; assay: Expression profile analysis of whole lung RNA; assay type: in vivo, mice; conditions: 2 months CS plus losartan
Description: Six- to eight-week-old AKR/J male mice were divided into 3 groups. The control group was kept in a filtered air environment, and the experimental groups were subjected to CS or CS plus losartan in drinking water. CS exposure was carried out (2 hours per day, 5 days per week) by burning 2R4F reference cigarettes (University of Kentucky, […], Ky., USA) using a smoking machine (Model TE-10; Teague Enterprises) for 6 to 7 weeks. […] Panselective TGF-β-neutralizing antibody (R&D Systems) was administered by intraperitoneal injection according to published protocol (70). Isotype-matched control antibody (R&D Systems) was administered to control mice as described above. Total RNA was extracted from the designated murine lungs, six in each treatment group, using the Trizol Reagent method (Invitrogen, Carlsbad, Calif. 92008, cat. no. 15596-026). Additional purification was performed on RNAeasy columns (Qiagen, Valencia, Calif. 913555, cat. no. 74104). The quality of total RNA samples was assessed using an Agilent 2100 Bioanalyzer (Agilent Technologies, Palo Alto, Calif.). The six RNA samples from each time point were pooled into two groups comprised of three murine specimens. […] The hybridized biotinylated cRNA was detected with streptavidin-Cy3 and quantitated using Illumina's BeadStation 500GX Genetic Analysis Systems scanner. […]

[6] = system: chronic CS-exposed AKR/J mice; assay: Measurement of mouse lung mechanics; assay type: in vivo
Description: as §1
The AT1 selective antagonist losartan (Merck Co.) was diluted into drinking water at concentrations of 3 mg/kg (low dose) and 30 mg/kg (high dose). Panselective TGF-β-neutralizing antibody (R&D Systems) was administered by intraperitoneal injection according to published protocol (70). Isotype-matched control antibody (R&D Systems) was administered to control mice as described above. […]
After being connected they were paralyzed with Succinylcholine (75 mg/kg) and ventilated with a tidal volume of 0.2 mL of 100% oxygen at a rate of 150 breathes/min, with a positive end expiratory pressure (PEEP) of 3 cm H2O. […] One minute later Rrs and Ers were measured (74). […] The expression levels of target genes were determined in triplicate from the standard curve and normalized to Gapdh mRNA level.

MMP9 = assay: Zymography of lung extracts; assay type: in vivo; conditions: CS-exposed mice
Description: as §1, §2

CS-exposed lungs = assay: CS-induced injury measures by immunohistochemistry: oxidative stress, inflammatory cells, proliferation; assay type: in vivo, mice
Description: as §1, §2
Tissue sections were deparaffinized and rehydrated in an ethanol series. Sections were blocked for non-specific binding with 3% normal serum from chicken and incubated with the primary antibodies for 1 hour at room temperature. For immunofluorescence, sections were then incubated with secondary antibodies at 1:200 for 30 minutes at room temperature (Molecular Probes). Sections were counterstained with 4′,6′-diamidinio-2-phenylindole (DAPI) and mounted with Vectashield hard set mounting medium (Vector Labs). Briefly, after incubation with the primary antibody overnight at 4° C., slides were washed with PBST, incubated with an appropriate biotinylated secondary antibody (Jackson ImmunoResearch Inc.), and developed by using ABC and DAB detection reagents (Vector Laboratories). […]

Structure (SMILES): CCCCc1nc(Cl)c(CO)n1Cc1ccc(-c2ccccc2-c2nn[nH]n2)cc1 [losartan]
- JNK and p38 activation (Akt, JNK, p38): only Akt activation was normalized
- TGF-β signaling (phosphorylated smad2 in alveolar and airway epithelium) (TGF-β signaling (psmad2)): normalized with losartan treatment; also recorded: inhibit chronic CS-induced TGF-β signaling in the lung
- TUNEL labeling in the airspace [1]: attenuated
- active caspase-3 labeling in the airspace [1]: attenuated
- active TGF-β in lung lysates by ELISA (active TGF-β): normalized TGF-β in both strains
- elastin fragmentation in the airspaces (elastin): improved with losartan treatment
- airspace dimension (mean linear intercept) ([2]; 2 months CS, concurrent treatment (losartan 0.6 or 1.2 g/l in drinking water; antibody 10 mg/kg/wk)): marked reduction in the airspace dimension; also recorded: attenuate destructive airspace enlargement
- airway alveolar attachments, a measure of airspace destruction ([2]; CS-exposed): recovery with losartan treatment
- AT1 staining in the airspace walls (AT1 receptor): normalized
- MMP12 expression in the lungs (MMP12): normalized
- CS-induced weight loss [3]: not improved
- CS-induced weight loss ([3]; listed as Losartan): does not rescue CS-induced weight loss
- body weight of RA-exposed mice ([3]; room air-exposed mice): did not alter body weight
- airway epithelial thickening (airway mucosal thickness) ([4]; 2 months CS, small airways of similar size): normalized
- airway epithelial proliferation (Ki67 staining) ([4]; CS-exposed mice): trend toward reduction
- density and abundance of αSMA-producing smooth muscle cells surrounding the small airways ([4]; data not shown): not changed
- peribronchiolar collagen deposition (trichrome) ([4]; mice exposed to 3 months of CS): normalized collagen deposition
- oxidoreductase, B cell receptor signaling, chemokine signaling, and cytokine receptor interaction pathways (induced with CS) [5]: repressed with losartan treatment
- stress response and MAPK pathway genes (downregulated with CS) [5]: induced with losartan treatment
- lung elastance [6]: normalized
- lung size (total lung capacity) [6]: normalized
- MMP9 activation (MMP9): normalized
- inflammatory cell infiltration (alveolar macrophage and lymphocyte numbers) (CS-exposed lungs; AKR/J mice, CS-exposed lungs): reduced inflammatory cell infiltration
- oxidative stress (nitrotyrosine and 8-deoxyguanine immunostaining) (CS-exposed lungs; AKR/J mice, CS-exposed lungs): normalized oxidative stress
- airspace epithelial cell proliferation reduced by CS (CS-exposed lungs; CS-exposed mice): did not normalize
